Our source for the IC50 values is patent US20240150321A1, “PYRAZOLYLSULFONAMIDE COMPOUNDS AND THEIR USE IN THERAPY” (HOTSPOT THERAPEUTICS, INC., priority 2022, published 2024).

Usually IC50 stands for the point on the concentration scale where inhibition reaches its midpoint.

One experiment has as its target Avi-tagged FL MALT-1 (Homo sapiens (Human), UniProt Q9UDY8). Nature of the experiment: MALT-1 Fluorogenic Peptide Cleavage Assay (MALT1 inhibition assay). The conditions noted are these: Ac-LRSR-AMC peptide substrate, 30 min pre-incubation, 90 min reaction at room temperature. Format: biochemical. The method, boiled down:
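Cleavage of Ac-LRSR-AMC, read as fluorescence at 342/441 nm after 90 min at room temperature, with substrate working stocks of 50 μM (Km) or 280 μM (10×Km). Enzyme, Avi-tagged full-length MALT-1 (40 nM stock), was first pre-incubated 30 min with compound in citrate/HEPES pH 6.89 buffer with TCEP, EDTA, CHAPS and 2% DMSO; IC50 fitted from normalised % inhibition.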

Experiment [1] has as its system NF-kB reporter in Jurkat cells. Nature of the experiment: NF-kB reporter assay in Jurkat cells stimulated with aCD3/aCD28/PMA. The conditions noted are these: Homo sapiens, read-out: NF-kB Reporter Assay IC50. Format: cell-based. The procedure, abridged:
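Luminescence (One-Glo) from the NF-kB reporter yielded IC50 values. Stimulation lasted 4 h at 37° C with aCD3, aCD28 and PMA (final 5, 5 and 0.03 […]), after 1 h compound pre-exposure of 25,000 Jurkat cells per well in serum-free RPMI.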
Background: A reporter such as luciferase makes a cellular process visible.

[2] abbreviates: Jurkat cells, 1 hr compound pre-incubation, aCD3/aCD28/PMA stimulation 4 hr, One-Glo readout.

Each structure is given as a SMILES string. Read-outs that look alike come from different tables or passages of the source.

Chain of Avi-tagged FL MALT-1 (Q9UDY8 whole entry): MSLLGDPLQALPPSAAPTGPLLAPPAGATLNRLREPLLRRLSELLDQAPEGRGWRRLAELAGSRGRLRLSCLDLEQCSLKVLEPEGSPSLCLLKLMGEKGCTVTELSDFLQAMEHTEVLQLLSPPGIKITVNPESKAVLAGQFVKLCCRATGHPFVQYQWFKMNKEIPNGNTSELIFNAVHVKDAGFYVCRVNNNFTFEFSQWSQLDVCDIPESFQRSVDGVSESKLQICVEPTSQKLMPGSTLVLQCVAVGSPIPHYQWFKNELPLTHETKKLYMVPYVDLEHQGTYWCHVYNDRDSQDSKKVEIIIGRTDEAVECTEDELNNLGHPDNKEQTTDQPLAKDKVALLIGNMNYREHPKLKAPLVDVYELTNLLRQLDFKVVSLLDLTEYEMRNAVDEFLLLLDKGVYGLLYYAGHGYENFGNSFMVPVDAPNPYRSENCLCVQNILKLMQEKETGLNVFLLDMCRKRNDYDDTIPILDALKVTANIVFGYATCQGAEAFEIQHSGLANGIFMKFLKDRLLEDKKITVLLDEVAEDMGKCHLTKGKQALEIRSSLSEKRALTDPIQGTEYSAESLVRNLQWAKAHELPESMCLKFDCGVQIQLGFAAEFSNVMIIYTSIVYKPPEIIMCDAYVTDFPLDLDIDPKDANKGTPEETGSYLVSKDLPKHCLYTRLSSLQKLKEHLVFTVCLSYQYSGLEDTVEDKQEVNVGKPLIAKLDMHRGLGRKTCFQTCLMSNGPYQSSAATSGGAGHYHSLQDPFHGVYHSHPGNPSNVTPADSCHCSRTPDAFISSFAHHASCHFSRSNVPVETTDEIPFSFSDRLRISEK

`Cn1ncc2cccc(NS(=O)(=O)c3cnn(-c4cc(N5CCCCCC5)ccn4)c3)c21` [Compound I-391, 1-[4-(azepan-1-yl)pyridin-2-yl]-N-(1-methylindazol-7-yl)pyrazole-4-sulfonamide]: the IC50 at Avi-tagged FL MALT-1 was more than 2.5 µM; in experiment [1] (setting [2]), less than 0.4 µM.
Taken in the same sequence, the figures for `[2H]C([2H])([2H])Oc1ccc2cnn(C)c2c1NS(=O)(=O)c1cnn(-c2cc(C3CC3)ccn2)c1` [Compound I-96, 1-(4-cyclopropylpyridin-2-yl)-N-(6-(methoxy-d3)-1-methyl-1H-indazol-7-yl)-1H-pyrazole-4-sulfonamide] were not above 0.4 µM and less than 0.4 µM.
Take `CCc1ccc2cnn(C)c2c1NS(=O)(=O)c1cnn(-c2cncc(C(F)(F)F)c2)c1` [Compound I-3, N-(6-Ethyl-1-Methyl-1H-Indazol-7-yl)-1-(5-(Trifluoromethyl) Pyridin-3-yl)-1H-Pyrazole-4-Sulfonamide]: the 50% inhibitory concentration (IC50) was not above 0.4 µM against Avi-tagged FL MALT-1 and less than 0.4 µM in experiment [1] (setting [2]).
Turning to `C[C@@H](O)c1ccnc(-n2cc(S(=O)(=O)Nc3cccc4cnn(C)c34)cn2)c1` [Compound I-269], the figures for the concentration for half-maximal inhibition (IC50) (on Avi-tagged FL MALT-1; in experiment [1] (setting [2])) were more than 2.5 µM and less than 0.4 µM, respectively.
`C[C@@H]1CCN(c2ccnc(-n3cc(S(=O)(=O)Nc4cccc5cnn(C)c45)cn3)c2)C1` [Compound I-401, N-(1-methylindazol-7-yl)-1-{4-[(3R)-3-methylpyrrolidin-1-yl]pyridin-2-yl}pyrazole-4-sulfonamide]: the half-inhibitory concentration (IC50) is more than 2.5 µM against Avi-tagged FL MALT-1 and less than 0.4 µM in experiment [1] (setting [2]).
For the compound `CN1CC[C@H](n2cc(S(=O)(=O)Nc3cccc4cnn(C)c34)cn2)CC1=O` [Compound I-415], the IC50 (against Avi-tagged FL MALT-1; in experiment [1] (setting [2])) was more than 2.5 µM in each case.
Regarding `Cn1ncc2cccc(NS(=O)(=O)c3cnn(-c4cc(C5COC5)ccn4)c3)c21` [Compound I-264, N-(1-methylindazol-7-yl)-1-[4-(oxetan-3-yl)pyridin-2-yl]pyrazole-4-sulfonamide], the results for the half-inhibitory concentration (IC50) (against Avi-tagged FL MALT-1; in experiment [1] (setting [2])) were more than 2.5 µM and less than 0.4 µM, respectively.
Taken in the same sequence, the figures for `[2H]C([2H])([2H])n1ncc2ccc(OC)c(NS(=O)(=O)c3cnn(-c4cc(C(C)(F)F)ccn4)c3)c21` [Compound I-412, 1-(4-(1,1-Difluoroethyl)Pyridin-2-yl)-N-(6-Methoxy-1-(Methyl-D3)-1H-Indazol-7-yl)-1H-Pyrazole-4-Sulfonamide] were not above 0.4 µM and less than 0.4 µM.
For the compound `COc1ncc2cnn(C)c2c1NS(=O)(=O)c1cnn(-c2cc(N3CCCC3)ccn2)c1` [Compound I-398, N-{6-methoxy-1-methylpyrazolo[4,3-c]pyridin-7-yl}-1-[4-(pyrrolidin-1-yl)pyridin-2-yl]pyrazole-4-sulfonamide], the results for the concentration for half-maximal inhibition (IC50) (against Avi-tagged FL MALT-1; in experiment [1] (setting [2])) were 0.4 to 1 µM and less than 0.4 µM, respectively.
Regarding `CCc1ccc2cnn(C)c2c1NS(=O)(=O)c1cnn(-c2cc(C(F)(F)F)ncn2)c1` [Compound I-19, N-(6-Ethyl-1-Methyl-1H-Indazol-7-yl)-1-(6-(Trifluoromethyl) Pyrimidin-4-yl)-1H-Pyrazole-4-Sulfonamide], the IC50 was not above 0.4 µM on Avi-tagged FL MALT-1 and less than 0.4 µM in experiment [1] (setting [2]).
For the compound `Cc1c(S(=O)(=O)Nc2cccc3cnn(C)c23)cnn1-c1cc(C(F)(F)F)ccn1` [Compound I-137, 5-methyl-N-(1-methyl-1H-indazol-7-yl)-1-(4-(trifluoromethyl)pyridin-2-yl)-1H-pyrazole-4-sulfonamide], the IC50 against Avi-tagged FL MALT-1 is 0.4 to 1 µM; in experiment [1] (setting [2]) it was less than 0.4 µM.
Regarding `Cn1ncc2cccc(NS(=O)(=O)c3cnn(-c4cc(C(C)(C)F)ccn4)c3)c21` [Compound I-113, 1-(4-(2-fluoropropan-2-yl)pyridin-2-yl)-N-(1-methyl-1H-indazol-7-yl)-1H-pyrazole-4-sulfonamide], the half-maximal inhibitory concentration (IC50) is more than 2.5 µM against Avi-tagged FL MALT-1 and less than 0.4 µM in experiment [1] (setting [2]).
As for `CC1CCN(c2ccnc(-n3cc(S(=O)(=O)Nc4cccc5cnn(C)c45)cn3)c2)CC1` [Compound I-390, N-(1-methylindazol-7-yl)-1-[4-(4-methylpiperidin-1-yl)pyridin-2-yl]pyrazole-4-sulfonamide], the IC50 against Avi-tagged FL MALT-1 was more than 2.5 µM; in experiment [1] (setting [2]), less than 0.4 µM.
Taken in the same sequence, the figures for `Cc1cc(NS(=O)(=O)c2cnn(-c3ccnc(C(F)(F)F)c3)c2)c2c(cnn2C)c1` [Compound I-49, N-(1,5-Dimethyl-1H-Indazol-7-yl)-1-(2-(Trifluoromethyl) Pyridin-4-yl)-1H-Pyrazole-4-Sulfonamide] were more than 2.5 µM and more than 2.5 µM.
Turning to `Cc1ccnc(-n2cc(S(=O)(=O)Nc3cccc4[nH]nc(C)c34)cn2)c1` [Compound I-63, N-(3-Methyl-1H-Indazol-4-yl)-1-(4-Methylpyridin-2-yl)-1H-Pyrazole-4-Sulfonamide], the IC50 against Avi-tagged FL MALT-1 is more than 2.5 µM; in experiment [1] (setting [2]) it was less than 0.4 µM.
In the case of `COc1ccc2cnn(C)c2c1NS(=O)(=O)c1cnn(-c2cnc3n2CCOC3)c1` [Compound I-475, 1-(5,6-dihydro-8H-imidazo[2,1-c][1,4]oxazin-3-yl)-N-(6-methoxy-1-methyl-1H-indazol-7-yl)-1H-pyrazole-4-sulfonamide], the IC50 (against Avi-tagged FL MALT-1; in experiment [1] (setting [2])) was more than 2.5 µM in each case.
`Cn1ncc2cccc(NS(=O)(=O)c3cnn(-c4cc(N5CC(C#N)C5)ccn4)c3)c21` [Compound I-460]: the half-maximal inhibitory concentration (IC50) against Avi-tagged FL MALT-1 was more than 2.5 µM; in experiment [1] (setting [2]), less than 0.4 µM.
For `O=S(=O)(c1cnn(-c2cc(C(F)(F)F)ccn2)c1)N1CCCn2ncc3cccc1c32` [Compound I-379, 1-((1-(4-(trifluoromethyl)pyridin-2-yl)-1H-pyrazol-4-yl)sulfonyl)-1,2,3,4-tetrahydro-[1,4]diazepino[3,2,1-hi]indazole], the IC50 (at Avi-tagged FL MALT-1; in experiment [1] (Jurkat)) was more than 2.5 µM each time.
Turning to `Cn1ncc2cccc(NS(=O)(=O)c3cnn(-c4ccccn4)c3)c21` [Compound I-145, N-(1-methyl-1H-indazol-7-yl)-1-(pyridin-2-yl)-1H-pyrazole-4-sulfonamide], the figures for the 50% inhibitory concentration (IC50) (at Avi-tagged FL MALT-1; in experiment [1] (Jurkat)) were more than 2.5 µM and less than 0.4 µM, respectively.
`CCc1ccc2cnn(C)c2c1NS(=O)(=O)c1cnn(-c2cc(C)ccn2)c1` [Compound I-34, N-(6-Ethyl-1-Methyl-1H-Indazol-7-yl)-1-(4-Methylpyridin-2-yl)-1H-Pyrazole-4-Sulfonamide]: the concentration for half-maximal inhibition (IC50) on Avi-tagged FL MALT-1 was not above 0.4 µM; in experiment [1] (setting [2]) it was less than 0.4 µM.
Taken in the same sequence, the figures for `Cn1ncc2cccc(NS(=O)(=O)c3cnn(-c4cc(C5(F)CC(F)(F)C5)ccn4)c3)c21` [Compound I-383, N-(1-methylindazol-7-yl)-1-[4-(1,3,3-trifluorocyclobutyl)pyridin-2-yl]pyrazole-4-sulfonamide] were more than 2.5 µM and less than 0.4 µM.
In the case of `CN1CC[C@@H](n2cc(S(=O)(=O)Nc3cccc4cnn(C)c34)cn2)CC1=O` [Compound I-414], the 50% inhibitory concentration (IC50) (against Avi-tagged FL MALT-1; in experiment [1] (setting [2])) was more than 2.5 µM in each case.
Consider `CC(=O)N1CC(c2ccnc(-n3cc(S(=O)(=O)Nc4cccc5cnn(C)c45)cn3)c2)C1` [Compound I-326], for which the IC50 (at Avi-tagged FL MALT-1; in experiment [1] (setting [2])) was more than 2.5 µM each time.
On to `COc1ncc2cnn(C)c2c1NS(=O)(=O)c1cnn(-c2cc(C3(F)COC3)ccn2)c1` [Compound I-124, 1-(4-(3-fluorooxetan-3-yl)pyridin-2-yl)-N-(6-methoxy-1-methyl-1H-pyrazolo[4,3-c]pyridin-7-yl)-1H-pyrazole-4-sulfonamide], for which the IC50 against Avi-tagged FL MALT-1 is not above 0.4 µM; in experiment [1] (setting [2]), less than 0.4 µM.
